Laboratory results taken from article PMC9501377, “New Diarylamine KV10.1 Inhibitors and Their Anticancer Potential” (Pharmaceutics, 2022).

Tests used:
[1] = system: MCF-7 breast cancer cell line; experiment: MTS antiproliferative assay; format: cell-based; conditions: Homo sapiens, MCF7, 72 h
Experimental: The antiproliferative activities of the compounds were evaluated on the breast cancer cell line MCF-7 (ATCC HTB-22, adherent cells isolated from a person), using an MTS (Promega, Madison, WI, USA) assay according to the manufacturer’s instructions. The MCF-7 cell line was obtained from the American Type Culture Collection (ATCC, Manassas, VA, USA). Cells were cultured in low-glucose Dulbecco’s Modified Eagle’s Medium (DMEM) (Sigma-Aldrich, St. Louis, MO, USA), supplemented with 10% fetal bovine serum (Gibco, Thermo Fisher Scientific, Waltham, MA, USA), 100 U/mL penicillin (Sigma-Aldrich, St. Louis, MO, USA), 100 µg/mL streptomycin (Sigma-Aldrich, St. Louis, MO, USA), and 2 mM L-glutamine (Sigma-Aldrich, St. Louis, MO, USA). The cell line was incubated in a 5% CO2 atmosphere at 37 °C. Cells were plated out in 96-well plates at a density of 2000 cells per well and incubated overnight. The next day, cells were treated with the indicated compounds, positive control (17-DMAG), or vehicle control (0.5% DMSO) and incubated for 72 h. […] Absorbance was measured at 492 nm using a microplate reader (Synergy 4 Hybrid; BioTek, Winooski, VT, USA). […] Statistical significance (p < 0.05) was calculated using a two-tailed Welch’s t-test between treated groups and DMSO. IC50 values are given as averages of the independent measurements and were calculated using GraphPad Prism 8.0 software (San Diego, CA, USA). […]

MCF-7 cells = experiment: Cell growth by Incucyte confluence, MCF-7; format: cell-based, human; conditions: 48–72 h; for reduction of proliferation of MCF-7 cells: 25 µM
Experimental: MCF-7 (DSMZ ACC 115) and PANC-1 (DSMZ ACC 783) cells were grown as recommended by the cell supplier at 5% CO2 and 37 °C in a humidified atmosphere. For determining cell growth, cells were seeded in 96-well culture plates (Corning, Corning, NY, USA) at a density of 10^4 cells/well. After 24 h, the compounds were added diluted in medium. Six wells per condition were used. Four images of each well were collected at 1 h intervals for 48–72 h. Two biological replicates were performed. Images were acquired using an Incucyte device (Sartorius/Essen biosciences). Cell confluence was calculated using the Incucyte software on the phase contrast images. The results are expressed as percent confluence per well normalised to the value with no compounds added.

Row | IC50 [1] [µM] | Compound | reduction of proliferation of MCF-7 cells (MCF-7 cells) | inhibition of growth of MCF-7 cells (MCF-7 cells; concentrations higher than 25 µM)
1 | 11.9 ± 1 | CN(C)CCOc1c(Br)cc(Nc2ccc(C(F)(F)F)cc2[N+](=O)[O-])cc1Br [Compound 18b, 3,5-Dibromo-4-(2-(dimethylamino)ethoxy)-N-(2-nitro-4-(trifluoromethyl)phenyl)aniline] | approximately half | 
2 | 18.5 ± 1.5 | CCN(CC)CCOc1ccc(Nc2ccc(C(F)(F)F)cc2[N+](=O)[O-])cc1 [Compound 17a, N-(4-(2-(Diethylamino)ethoxy)phenyl)-2-nitro-4-(trifluoromethyl)aniline] | approximately half | approximately 50%
